{
  "source": "patent US20120156150A1",
  "about": "“Composition for Improving Skin Condition Comprising Extract from Black Tea as Active Ingredient” (Keimyung University Industry Academic Cooperation Foundation, priority 2010, published 2012)",
  "key": {"Melan-a cells [1]": {"system": "Melan-a cells", "test": "Melanin analysis in Melan-a cells", "format": "cell-based, mouse", "conditions": "12.5 μg/mL, compared with the control group", "method": "(§1) Melan-a cells were purchased from Dr. Dorothy Bennett (St. George's Hospital, UK). Immortalized Melan-a cells with high pigment content are derived from C57BL/6 mouse. The cells were cultured using Roswell Park Memorial Institute (RPMI)-1640 medium containing 10% fetal bovine serum (FBS), 1% penicillin/streptomycin (P/S) and 200 nM 12-O-tetradecanoylphorbol 13-acetate (TPA) in a 10% CO2 incubator at 37° C. for 72 hours.\nMelan-a cells were seeded on a 96-well plate (2×10^4 cells/well) and cultured in a 10% CO2 incubator at 37° C. for 24 hours. Then, after adding 200 μL of AT, KA, EGCG, GT, WT or BT diluted to various concentrations (1.563, 3.125, 6.25 and 12.5 μg/mL) using RPMI-1640 medium to the wells, the cells were cultured in a 10% CO2 incubator at 37° C. for 72 hours, and then washed. This procedure was repeated several times. After dissolving Melanin with 1N NaOH, absorbance was measured at 490 nm using an ELISA reader. Melanin content (%) was calculated according to the following equation: % melanin content=(Asample/Ablank)×100, wherein Ablank is the absorbance of the control group (excluding the test sample) and Asample is the absorbance of the test compound."}, "tyrosinase [2]": {"molecular_target": "T1, tyrosinase (Mus musculus, UniProt P11344)", "T1 construct": "endogenous in cells; host or cells: Melan-a cells", "T1 sequence (P11344 19-533)": "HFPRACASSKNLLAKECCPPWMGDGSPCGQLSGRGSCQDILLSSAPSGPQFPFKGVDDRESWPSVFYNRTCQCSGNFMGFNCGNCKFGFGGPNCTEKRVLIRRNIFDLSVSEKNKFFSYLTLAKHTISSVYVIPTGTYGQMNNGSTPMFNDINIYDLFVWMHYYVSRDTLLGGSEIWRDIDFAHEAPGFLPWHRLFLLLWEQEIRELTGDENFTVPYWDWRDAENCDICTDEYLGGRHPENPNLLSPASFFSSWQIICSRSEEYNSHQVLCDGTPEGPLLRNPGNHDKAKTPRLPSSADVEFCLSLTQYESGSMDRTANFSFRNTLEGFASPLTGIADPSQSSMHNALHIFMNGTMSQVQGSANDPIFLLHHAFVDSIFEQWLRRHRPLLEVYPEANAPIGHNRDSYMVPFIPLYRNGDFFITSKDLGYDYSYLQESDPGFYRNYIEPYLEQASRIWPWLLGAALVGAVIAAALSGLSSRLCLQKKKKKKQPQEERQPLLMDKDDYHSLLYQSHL", "test": "Intracellular tyrosinase activity of Melan-a cells", "format": "biochemical", "conditions": "12.5 μg/mL, compared with the control group", "method": "(§2) Melan-a cells were seeded on a 60 φ cell culture dish (4×10^5 cells/well) and cultured in a 10% CO2 incubator at 37° C. for 24 hours. After washing with PBS, the cells were suspended by adding 200 μL of 1% triton X-100 to the culture dish, transferred to an e-tube, and fixed on ice. 60 minutes later, after shaking for 2-3 seconds, the cells were centrifuged at 4° C. and 14,000 rpm for 20 minutes to obtain 50 μL of protein, which was mixed with 49 μL of 0.1 M phosphate buffer (pH 6.8) and 1 μL of AT, EGCG, GT, WT or BT (1.563, 3.125, 6.25 or 12.5 μg/mL). After allowing the mixture to stand for 1 hour and adding 100 μL of L-DOPA, the mixture was incubated in a 10% CO2 incubator at 37° C. for 1 hour. Absorbance was measured at 490 nm using an ELISA reader. Tyrosinase activity was calculated according to the following equation: % inhibition=[1−(Asample/Ablank)]×100, wherein Ablank is the absorbance of the control group (excluding the test sample) and Asampie is the absorbance of the test compound."}, "Melan-a cells [3]": {"system": "Melan-a cells", "test": "MTT assay, viability of Melan-a cells", "format": "cell-based, mouse", "method": "as §1\nMelan-a cells were seeded on a 96-well plate (0.5×10^4 cells/well) and cultured in a 10% CO2 incubator at 37° C. for 24 hours. After adding 200 μL of AT, KA, EGCG, GT, WT or BT diluted to various concentrations (3.125, 6.25, 12.5, 25 and 50 μg/mL) using RPMI-1640 medium to the wells, the cells were cultured in a 10% CO2 incubator at 37° C. for 48 hours. Then, the cells were cultured in a medium containing […] in a 10% CO2 incubator at 37° C. for 3 hours. Subsequently, after settling the cells by centrifuging the plate at 1,000 rpm for 10 minutes, the medium was removed. Then, 200 μL of DMSO was added and the cells were suspended for 15 minutes in a plate shaker. Absorbance was measured at 540 nm using an ELISA reader. Cell viability (%) was calculated according to the following equation: % cell viability=(Asample/Ablank)×100, wherein Ablank is the absorbance of the control group (excluding the test sample) and Asample is the absorbance of the test compound."}, "tyrosinase [4]": {"system": "tyrosinase", "test": "Western blotting, expression of tyrosinase protein in Melan-a cells", "format": "cell-based, mouse", "method": "Protein concentration in the cell lysate was measured using the Pierce protein assay kit (Pierce Biotechnology, Inc., Rockford, USA), using BSA as standard. After adding same quantity of protein ([…]) on each lane, the proteins were separated by electrophoresis on 10% polyacrylamide gel. After transblotting onto nitrocellulose membrane, the membrane was incubated with PEP7 (1:10000 dilution, anti-tyrosinase antibody), PEP1 (1:10000 dilution, anti-TRP1 antibody) and PEP8 (1:10000 dilution, anti-TRP2 antibody). Then, the membrane was incubated with horseradish peroxidase-conjugated anti-rabbit IgG (1:1000 dilution; Amersham, Bucks, UK). Immunoreactive bands were detected by chemiluminescence using the ECL western blotting detector (Amersham, Bucks, UK). Band intensity was measured using the ImageJ program (NIH, Bethesda, USA). β-actin was used as internal control group for the immunoblotting."}, "tyrosinase [5]": {"molecular_target": "T1, tyrosinase", "test": "Cell-extracted tyrosinase activity of Melan-a cells", "format": "biochemical", "conditions": "12.5 μg/mL, compared with the control group", "method": "as §2, with “72” for “24”, “Asample” for “Asampie”"}, "[6]": {"test": "Electron donating ability (DPPH radical scavenging, Blois' method)", "method": "DPPH radical scavenging effect was measuring according to the Blois' method (1958). […] After adding 1 mL of the test sample in a test tube, 4×10^−4 M DPPH (4 mL) was added. The resulting mixture was shaken vigorously, allowed to stand in warm water of 60° C. for 10 seconds, and absorbance was measured at 525 nm. BHT was used as the positive control group. Then, free radical scavenging activity of each solution was calculated as “% inhibition” according to the following equation: % inhibition=[1−(Asample/Ablank)]×100, wherein Ab1ank is the absorbance of the control group (excluding the test sample) and Asample is the absorbance of the test compound."}, "S-100 protein": {"system": "S-100 protein", "test": "Immunohistochemical S-100 staining", "format": "in vivo, brown guinea pig", "conditions": "week 4; 2% sample", "method": "(§3) After dehydration, followed by washing with xylene and embedding in paraffin, 4 μm-thick samples were prepared. The sample was adhered on a coating slide and stained using the BenchMark XT automated immunostainer (Ventana Medical Systems, USA) after removing paraffin. […] Following reaction with S-100 and HMB-45 primary antibodies diluted to 1:100, the sample was washed with reaction buffer, reacted with biotin for 20 minutes, and then reacted with streptavidin for 25 minutes. After coloring with diaminobenzidine (DAB) using the Ventana detection kit), the sample was stained for observation using an optical microscope."}, "[7]": {"system": "melanin pigmentation in the epithelium", "test": "Fontana-Masson's silver staining, melanin-pigmented area", "format": "in vivo, brown guinea pig", "conditions": "week 4; 2% sample", "procedure": "In order to observe the morphological change of the skin tissue using an optical microscope, the extracted skin tissue was fixed in a 10% neutral formalin solution for 12 hours and washed with flowing water. After dehydrating in 70, 80, 95 and 100% ethanol followed by washing with xylene, the tissue was embedded in paraffin and 4 μm-thick samples were prepared using a microtome.\nParaffin was removed from the sample using xylene. After staining the sample for 60 minutes in silver nitrate solution at 56° C. according to the Masson's method (1928), followed by washing, color-toning 0.2% gold chloride solution and washing again, the sample was kept in 5% sodium thiosulfate solution for 5 minutes. Subsequently, after washing the sample once again, followed by counterstaining in nuclear fast red solution, dehydration in 95%, 95%, 100% and 100% alcohol and washing with xylene, the sample was put in Canada balsam for microscopic observation. The percentage of the melanin-pigmented area was calculated using an image analysis software."}, "gp100 protein": {"system": "gp100 protein", "test": "Immunohistochemical HMB-45 staining (gp100)", "format": "in vivo, brown guinea pig", "conditions": "week 4; 2% sample", "method": "as §3"}, "[8]": {"system": "UVB-induced hyperpigmentation", "test": "Melanin index (mexameter), brown guinea pig", "format": "in vivo", "conditions": "2% sample topical", "procedure": "Three brown guinea pigs weighing 450-550 g were purchased from Oriental Yeast Co. Ltd. (OYC; Japan). The animals were accustomed to the test environment for 7 days. The animals were housed in individual cages under the environment of 22±1° C. and 50±5% relative humidity with 12-hour alternate dark/light cycles. Feed and water were given ad libitum.\nUVB-induced hyperpigmentation was elicited on the back of the brown guinea pig according to the method of Choi et al. (2004). After anesthetizing the guinea pig with ketamine hydrochloride (100 mg/kg BW), 24 separate areas (φ 12 mm) on the skin of the back was exposed to UVB radiation (302-nm sunlamp). The areas were exposed to UVB of 500 mJ/cm^2 for 3 consecutive weeks, once a week. That is, a total of 1,500 mJ/cm^2 of UVB was radiated.\nOn day 10 after the final UVB radiation, 30 μL (1.06 mg/cm^2/day) of 2% HQ, EGCG, GT, WT or BT was topically applied for 4 weeks to the hyperpigmented areas (9 areas per each) using a micropipette, twice a day, and 4 days a week. Saline was used as control, and propylene glycol:ethanol:water (5:3:2) was used as vehicle control.\nBefore and after the topical application of the test sample, change in melanin pigmentation was measured 3 times in a non-invasive manner using a mexameter, once a week. The degree of pigmentation was analyzed by averaging the measured values."}},
  "note": "Marks after values point to notes of the source that are not given here.",
  "data": [
    {"smiles": "OC[C@H]1O[C@@H](Oc2ccc(O)cc2)[C@H](O)[C@@H](O)[C@@H]1O", "note": "[AT, arbutin]", "values": [
      {"measurement": "melanin content decreased by", "setting": "Melan-a cells [1]", "value": 18, "unit": "%"},
      {"measurement": "intracellular tyrosinase activity decreased by", "setting": "tyrosinase [2]", "value": 12, "unit": "%"},
      {"measurement": "maximum permissible level (MPL)", "setting": "Melan-a cells [3]; mouse, 48 h", "value": "exceeds 50 μg/mL"},
      {"measurement": "expression of tyrosinase protein", "setting": "tyrosinase [4]", "value": "no significant decrease"},
      {"measurement": "tyrosinase activity in cell extract (decreased) by", "setting": "tyrosinase [5]", "value": 13, "unit": "%"},
      {"measurement": "Electron donating ability", "setting": "[6]; 800 μg/mL", "value": 44, "unit": "%"}
    ]},
    {"smiles": "Cc1cc(C(C)(C)C)c(O)c(C(C)(C)C)c1", "note": "[BHT, 2,6-di-tert-butyl-4-methylphenol]", "values": [
      {"measurement": "Electron donating ability", "setting": "[6]; 800 μg/mL", "value": 89, "unit": "%"},
      {"measurement": "Electron donating ability", "setting": "[6]; 1,000 μg/mL", "value": 55, "unit": "%"}
    ]},
    {"smiles": "O=C(O[C@@H]1Cc2c(O)cc(O)cc2O[C@@H]1c1cc(O)c(O)c(O)c1)c1cc(O)c(O)c(O)c1", "note": "[EGCG, epigallocatechin gallate]", "values": [
      {"measurement": "melanin content decreased by", "setting": "Melan-a cells [1]", "value": 29, "unit": "%"},
      {"measurement": "intracellular tyrosinase activity decreased by", "setting": "tyrosinase [2]", "value": 61, "unit": "%"},
      {"measurement": "maximum permissible level (MPL)", "setting": "Melan-a cells [3]; Melan-a cells", "value": 12.5, "unit": "µg/mL"},
      {"measurement": "% of S-100 Protein", "setting": "S-100 protein", "value": "5.3 ± 0.7^bc %"},
      {"measurement": "S-100 Protein area", "setting": "S-100 protein", "value": "611 ± 81", "unit": "μm^2"},
      {"measurement": "area of S-100 protein expression, decrease by, as compared to the control groups", "setting": "S-100 protein", "value": 62, "unit": "%"},
      {"measurement": "tyrosinase activity in cell extract (decreased) by", "setting": "tyrosinase [5]", "value": 18, "unit": "%"},
      {"measurement": "Electron donating ability", "setting": "[6]; 800 μg/mL", "value": 94, "unit": "%"},
      {"measurement": "% of melanin pigment", "setting": "[7]", "value": "10.5 ± 2.0^c %"},
      {"measurement": "Melanin pigment area", "setting": "[7]", "value": "1174 ± 189", "unit": "μm^2"},
      {"measurement": "melanin pigmented area decreased by, as compared to the control group", "setting": "[7]", "value": 48, "unit": "%"},
      {"measurement": "% of Melanin pigment (Table 5, gp 100 protein)", "setting": "gp100 protein", "value": "5.3 ± 0.8^c %"},
      {"measurement": "Melanin pigment (area; Table 5, gp 100 protein)", "setting": "gp100 protein", "value": "600 ± 107", "unit": "μm^2"},
      {"measurement": "area of gp 100 protein expression, decrease by, as compared to the group C", "setting": "gp100 protein", "value": 61, "unit": "%"},
      {"measurement": "melanin index", "setting": "[8]; week 0", "value": "723.5 ± 11.3^a AU"},
      {"measurement": "melanin index", "setting": "[8]; week 1", "value": "704.1 ± 12.5^a* AU"},
      {"measurement": "melanin index", "setting": "[8]; week 2", "value": "675.9 ± 12.4^c AU"},
      {"measurement": "melanin index", "setting": "[8]; week 3", "value": "636.6 ± 12.2^b AU"},
      {"measurement": "melanin index", "setting": "[8]; week 4", "value": "582.9 ± 12.8^b AU"},
      {"measurement": "melanin index decreased by, as compared to the group C", "setting": "[8]; week 4", "value": 17, "unit": "%"}
    ]},
    {"smiles": "O=c1cc(CO)occ1O", "note": "[KA, kojic acid]", "values": [
      {"measurement": "melanin content decreased by", "setting": "Melan-a cells [1]", "value": 7, "unit": "%"},
      {"measurement": "maximum permissible level (MPL)", "setting": "Melan-a cells [3]; mouse, 48 h", "value": "exceeds 50 μg/mL"},
      {"measurement": "Electron donating ability", "setting": "[6]; 800 μg/mL", "value": 19, "unit": "%"}
    ]}
  ]
}
